From ChEMBL document CHEMBL2406972, “Synthesis and antitumor activities of novel dibenzo[b,d]furan-imidazole hybrid compounds” (Eur J Med Chem, 2013)

Tests used:
Assay type in all cases: functional, cell-based
[1] = test system: MCF7; assay: Cytotoxicity against human MCF7 cells after 48 hrs by MTT assay; conditions: MCF7, 48 h
[2] = test system: HL-60; assay: Cytotoxicity against human HL60 cells after 48 hrs by MTT assay; conditions: HL-60, 48 h
[3] = test system: SMMC-7721; assay: Cytotoxicity against human SMMC7721 cells after 48 hrs by MTT assay; conditions: SMMC-7721, 48 h
[4] = test system: A549; assay: Cytotoxicity against human A549 cells after 48 hrs by MTT assay; conditions: A549, 48 h
[5] = test system: SW480; assay: Cytotoxicity against human SW480 cells after 48 hrs by MTT assay; conditions: SW480, 48 h

Row | SMILES | IC50 [1] | IC50 [2] | IC50 [3] | IC50 [4] | IC50 [5]
1 | CC(c1ccc2oc3ccccc3c2c1)n1c[n+](CC(=O)c2ccccc2)c2ccccc21 (stereo not given) | 12.5 µM | 2.46 µM | 8.51 µM | 18.1 µM | 14.6 µM
2 | O=C(c1ccccc1)C(c1ccccc1)[n+]1ccn(C(c2ccccc2)c2ccc3oc4ccccc4c3c2)c1 (stereo not given) | 1.46 µM | 0.52 µM | 2.38 µM | 3.75 µM | 2.36 µM
3 | Cc1n(C(c2ccccc2)c2ccc3oc4ccccc4c3c2)cc[n+]1Cc1ccc([N+](=O)[O-])cc1 (stereo not given) | 15.3 µM | 8.74 µM | 18.5 µM | > 40 µM | 18.2 µM
4 | CCCC[n+]1ccn(C(C)c2ccc3oc4ccccc4c3c2)c1 (stereo not given) | 9.11 µM | 5.63 µM | 14.2 µM | 12.8 µM | 24.1 µM
5 | CC(c1ccc2oc3ccccc3c2c1)n1cc[n+](CC(=O)c2ccc(O)cc2)c1 (stereo not given) | > 40 µM | > 40 µM | > 40 µM | > 40 µM | > 40 µM
6 | COc1ccc(C(=O)C[n+]2ccn(C(c3ccccc3)c3ccc4oc5ccccc5c4c3)c2)cc1 (stereo not given) | 4.12 µM | 2.09 µM | 5.59 µM | 7.27 µM | 3.76 µM
7 | Cc1n(C(C)c2ccc3oc4ccccc4c3c2)cc[n+]1CC(=O)c1ccc(O)cc1 (stereo not given) | 26.4 µM | 12.2 µM | 13.3 µM | 28.6 µM | 37.5 µM
8 | Cc1n(C(c2ccccc2)c2ccc3oc4ccccc4c3c2)cc[n+]1CC(=O)c1ccc(Br)cc1 (stereo not given) | 3.45 µM | 2.25 µM | 3.93 µM | 9.46 µM | 1.98 µM
9 | CC(c1ccc2oc3ccccc3c2c1)n1c[n+](Cc2ccc([N+](=O)[O-])cc2)c2ccccc21 (stereo not given) | 13.8 µM | 5.93 µM | 18.4 µM | 32.3 µM | 13.4 µM
10 | O=C(C[n+]1cn(C(c2ccccc2)c2ccc3oc4ccccc4c3c2)c2ccccc21)c1ccc(Br)cc1 (stereo not given) | 2.91 µM | 2.1 µM | 3.36 µM | 3.8 µM | 3.83 µM
11 | CC(c1ccc2oc3ccccc3c2c1)n1c[n+](CC(=O)c2ccc(Br)cc2)c2ccccc21 (stereo not given) | 3.08 µM | 0.66 µM | 2.62 µM | 3.54 µM | 3.18 µM
12 | Cc1n(C(C)c2ccc3oc4ccccc4c3c2)cc[n+]1CC(=O)c1ccc(Br)cc1 (stereo not given) | 6.77 µM | 2.67 µM | 6.4 µM | 12.8 µM | 11.8 µM
13 | O=C(C[n+]1ccn(C(c2ccccc2)c2ccc3oc4ccccc4c3c2)c1)c1ccc(Br)cc1 (stereo not given) | 3.32 µM | 2.13 µM | 10.8 µM | 7.7 µM | 2.11 µM
14 | CCCC[n+]1ccn(C(C)c2ccc3oc4ccccc4c3c2)c1C (stereo not given) | 6.6 µM | 3.08 µM | 7.98 µM | 13 µM | 10 µM
15 | CC(c1ccc2oc3ccccc3c2c1)n1c[n+](C(C(=O)c2ccccc2)c2ccccc2)c2ccccc21 (stereo not given) | 9.35 µM | 2.79 µM | 5.4 µM | 12.7 µM | 10.5 µM
16 | O=C(C[n+]1ccn(C(c2ccccc2)c2ccc3oc4ccccc4c3c2)c1)c1ccc(O)cc1 (stereo not given) | 7.05 µM | 2.61 µM | 6.28 µM | 6.8 µM | 15.2 µM
17 | Cc1nccn1C(C)c1ccc2oc3ccccc3c2c1 (stereo not given) | 18.7 µM | 10.9 µM | > 40 µM | 16.2 µM | 21.4 µM
18 | Cc1n(C(C)c2ccc3oc4ccccc4c3c2)cc[n+]1Cc1ccc([N+](=O)[O-])cc1 (stereo not given) | > 40 µM | 14.6 µM | > 40 µM | > 40 µM | > 40 µM
19 | CC(c1ccc2oc3ccccc3c2c1)n1c[n+](CC(=O)c2ccc(O)cc2)c2ccccc21 (stereo not given) | 14.2 µM | 2.35 µM | 24.1 µM | 20.1 µM | 16.3 µM
20 | Cc1n(C(c2ccccc2)c2ccc3oc4ccccc4c3c2)cc[n+]1CC(=O)c1ccc2ccccc2c1 (stereo not given) | 2.31 µM | 0.98 µM | 2.57 µM | 3.78 µM | 2.62 µM
21 | Cc1n(C(c2ccccc2)c2ccc3oc4ccccc4c3c2)cc[n+]1CC(=O)c1ccc(O)cc1 (stereo not given) | 11.8 µM | 3.92 µM | 8.84 µM | 26.2 µM | 14.3 µM
22 | c1ccc(C(c2ccc3oc4ccccc4c3c2)n2cnc3ccccc32)cc1 (stereo not given) | 20.9 µM | 17.2 µM | 25.4 µM | 23.4 µM | > 40 µM
23 | CC(c1ccc2oc3ccccc3c2c1)n1c[n+](CC(=O)c2ccc(F)cc2)c2ccccc21 (stereo not given) | 3.85 µM | 1.67 µM | 6.31 µM | 13.7 µM | 9.77 µM
24 | COc1ccc(C(=O)C[n+]2cn(C(c3ccccc3)c3ccc4oc5ccccc5c4c3)c3ccccc32)cc1 (stereo not given) | 4.78 µM | 0.64 µM | 2.1 µM | 3.34 µM | 5.56 µM

Row | SMILES | IC50 [1] | IC50 [2] | IC50 [3] | IC50 [4] | IC50 [5]
25 | O=C(C[n+]1ccn(C(c2ccccc2)c2ccc3oc4ccccc4c3c2)c1)c1ccccc1 (stereo not given) | 6.29 µM | 2.14 µM | 11.4 µM | 17.7 µM | 9.05 µM
26 | CC(c1ccc2oc3ccccc3c2c1)n1c[n+](CC(=O)c2ccc3ccccc3c2)c2ccccc21 (stereo not given) | 3.14 µM | 1.65 µM | 2.24 µM | 3.46 µM | 2.95 µM
27 | CCCC[n+]1ccn(C(c2ccccc2)c2ccc3oc4ccccc4c3c2)c1C (stereo not given) | 11.9 µM | 3.81 µM | 13.1 µM | 21.4 µM | 28.4 µM
28 | CC(c1ccc2oc3ccccc3c2c1)n1cc[n+](CC(=O)c2ccc(Br)cc2)c1 (stereo not given) | 4.08 µM | 2.95 µM | 11 µM | 13.7 µM | 6.85 µM
29 | O=C(C[n+]1ccn(C(c2ccccc2)c2ccc3oc4ccccc4c3c2)c1)c1ccc(F)cc1 (stereo not given) | 4 µM | 3 µM | 14.5 µM | 10.2 µM | 5.16 µM
30 | Cc1nccn1C(c1ccccc1)c1ccc2oc3ccccc3c2c1 (stereo not given) | 23.5 µM | 14.5 µM | 30.2 µM | 18.2 µM | > 40 µM
31 | CC(c1ccc2oc3ccccc3c2c1)n1ccnc1 (stereo not given) | > 40 µM | > 40 µM | > 40 µM | > 40 µM | > 40 µM
32 | c1ccc(C(c2ccc3oc4ccccc4c3c2)n2ccnc2)cc1 (stereo not given) | > 40 µM | 21 µM | 33.7 µM | 24.6 µM | > 40 µM
33 | O=C(C[n+]1cn(C(c2ccccc2)c2ccc3oc4ccccc4c3c2)c2ccccc21)c1ccc(O)cc1 (stereo not given) | 9.15 µM | 2.89 µM | 10.8 µM | 17.7 µM | 15.6 µM
34 | COc1ccc(C(=O)C[n+]2cn(C(C)c3ccc4oc5ccccc5c4c3)c3ccccc32)cc1 (stereo not given) | 3.42 µM | 2.05 µM | 2.95 µM | 5.95 µM | 3.18 µM
35 | Cc1n(C(C)c2ccc3oc4ccccc4c3c2)cc[n+]1CC(=O)c1ccc(F)cc1 (stereo not given) | 16.2 µM | 2.96 µM | 4.7 µM | 15.4 µM | 12.3 µM
36 | O=C(C[n+]1cn(C(c2ccccc2)c2ccc3oc4ccccc4c3c2)c2ccccc21)c1ccccc1 (stereo not given) | 2.5 µM | 2.3 µM | 4.61 µM | 13.6 µM | 3.54 µM
37 | Cc1n(C(c2ccccc2)c2ccc3oc4ccccc4c3c2)cc[n+]1CC(=O)c1ccc(F)cc1 (stereo not given) | 3.23 µM | 2.13 µM | 4.22 µM | 4.88 µM | 1.89 µM
38 | CC(c1ccc2oc3ccccc3c2c1)n1cnc2ccccc21 (stereo not given) | > 40 µM | > 40 µM | > 40 µM | > 40 µM | > 40 µM
39 | CCCC[n+]1cn(C(C)c2ccc3oc4ccccc4c3c2)c2ccccc21 (stereo not given) | 9.41 µM | 1.67 µM | 3.78 µM | 8.55 µM | 11.1 µM
40 | COc1ccc(C(=O)C[n+]2ccn(C(c3ccccc3)c3ccc4oc5ccccc5c4c3)c2C)cc1 (stereo not given) | 2.42 µM | 0.59 µM | 2.08 µM | 1.9 µM | 3.73 µM
41 | CC(c1ccc2oc3ccccc3c2c1)n1cc[n+](CC(=O)c2ccc3ccccc3c2)c1 (stereo not given) | 3.5 µM | 2.46 µM | 6.43 µM | 8.46 µM | 3.69 µM
42 | Cc1n(C(C)c2ccc3oc4ccccc4c3c2)cc[n+]1CC(=O)c1ccc2ccccc2c1 (stereo not given) | 1.65 µM | 0.6 µM | 2.15 µM | 3.86 µM | 3.09 µM
43 | O=[N+]([O-])c1ccc(C[n+]2cn(C(c3ccccc3)c3ccc4oc5ccccc5c4c3)c3ccccc32)cc1 (stereo not given) | 9.26 µM | 4.6 µM | 13.2 µM | 21.7 µM | 16.7 µM
44 | COc1ccc(C(=O)C[n+]2ccn(C(C)c3ccc4oc5ccccc5c4c3)c2)cc1 (stereo not given) | 9.02 µM | 3.45 µM | 9.98 µM | 12.2 µM | 12.7 µM
45 | COc1ccc(C(=O)C[n+]2ccn(C(C)c3ccc4oc5ccccc5c4c3)c2C)cc1 (stereo not given) | 1.29 µM | 0.7 µM | 1.43 µM | 3.02 µM | 5.78 µM
46 | O=[N+]([O-])c1ccc(C[n+]2ccn(C(c3ccccc3)c3ccc4oc5ccccc5c4c3)c2)cc1 (stereo not given) | 10.3 µM | 10.8 µM | 15.3 µM | 28.6 µM | 19.1 µM
47 | CCCC[n+]1cn(C(c2ccccc2)c2ccc3oc4ccccc4c3c2)c2ccccc21 (stereo not given) | 3.37 µM | 1.12 µM | 2.93 µM | 4.61 µM | 8 µM
48 | CC(c1ccc2oc3ccccc3c2c1)n1cc[n+](Cc2ccc([N+](=O)[O-])cc2)c1 (stereo not given) | 13.8 µM | 11.3 µM | 22.5 µM | > 40 µM | > 40 µM
